Laboratory results reported in patent US12557545B2, “Compound and organic light emitting device comprising the same” (LG Chem, Ltd., priority 2020, dated 2026).

assay: Solubility experiment in cyclohexanone; type: physicochemical; details: dissolved in cyclohexanone (CHON) under normal temperature/pressure; whether 0.1 wt % or more was dissolved
Method: In order to confirm the solubility in the solvent used in the solution process of the compounds prepared in the Preparation Examples and the comparative compounds, each of them was dissolved in the solvent cyclohexanone (CHON) under normal temperature/pressure conditions, and it was confirmed whether 0.1 wt % or more was dissolved.

Solvent CHON (solubility)	Compound
◯ (0.1 wt. % or more soluble)	CC(C)(C)c1ccc(N(c2ccc3c4c5ccc6c(c5ccc4n(-c4ccccc4)c3c2)c2ccc(N(c3ccccc3)c3ccc4cc(-c5cc7ccccc7o5)ccc4c3)cc2n6-c2ccccc2)c2ccc3c4c5ccc6c(c5ccc4n(-c4ccccc4)c3c2)c2ccc(N(c3ccccc3)c3ccc4cc(-c5cc7ccccc7o5)ccc4c3)cc2n6-c2ccccc2)cc1 [Compound 10]
◯ (0.1 wt. % or more soluble)	Cc1cccc(N(c2ccc3c4c5ccc6c(c5ccc4n(-c4ccccc4)c3c2)c2ccc(-c3ccc4c5c7ccc8c(c7ccc5n(-c5ccccc5)c4c3)c3ccc(N(c4cccc(C)c4)c4cccc5c4oc4ccccc45)cc3n8-c3ccccc3)cc2n6-c2ccccc2)c2cccc3c2oc2ccccc23)c1 [Compound 16]
◯ (0.1 wt. % or more soluble)	Cc1cccc(N(c2ccc3c4c5ccc6c(c5ccc4n(-c4ccccc4)c3c2)c2ccc(-c3ccc(-c4ccc5c7c8ccc9c(c8ccc7n(-c7ccccc7)c5c4)c4ccc(N(c5cccc(C)c5)c5cccc7c5oc5ccccc57)cc4n9-c4ccccc4)cc3)cc2n6-c2ccccc2)c2cccc3c2oc2ccccc23)c1 [Compound 14]
◯ (0.1 wt. % or more soluble)	Cc1cccc(N(c2ccc3c4c5ccc6c(c5ccc4n(-c4ccccc4)c3c2)c2ccc(-c3cccc(-c4ccc5c7c8ccc9c(c8ccc7n(-c7ccccc7)c5c4)c4ccc(N(c5cccc(C)c5)c5cccc7c5oc5ccccc57)cc4n9-c4ccccc4)c3)cc2n6-c2ccccc2)c2cccc3c2oc2ccccc23)c1 [Compound 15]
X (0.1 wt. % or more insoluble)	CC1(C)c2cc(-c3cc4ccccc4o3)ccc2-c2ccc(N(c3ccccc3)c3ccc4c5c6ccc7c(c6ccc5n(-c5ccccc5)c4c3)c3ccc(N(c4ccccc4)c4ccc5c(c4)C(C)(C)c4cc(-c6cc8ccccc8o6)ccc4-5)cc3n7-c3ccccc3)cc21 [Compound J, reference compound]
◯ (0.1 wt. % or more soluble)	Cc1cccc(N(c2ccc3c4c5ccc6c(c5ccc4n(-c4ccccc4)c3c2)c2ccc(N(c3ccc(-c4cc5ccccc5o4)cc3)c3ccc4c5c7ccc8c(c7ccc5n(-c5ccccc5)c4c3)c3ccc(N(c4cccc(C)c4)c4cccc5c4oc4ccccc45)cc3n8-c3ccccc3)cc2n6-c2ccccc2)c2cccc3c2oc2ccccc23)c1 [Compound 5]
◯ (0.1 wt. % or more soluble)	CC(C)(C)c1ccc(N(c2ccc3c4c5ccc6c(c5ccc4n(-c4ccccc4)c3c2)c2ccc(N(c3ccccc3)c3ccc4ccccc4c3)cc2n6-c2ccccc2)c2ccc3c4c5ccc6c(c5ccc4n(-c4ccccc4)c3c2)c2ccc(N(c3ccccc3)c3ccc4ccccc4c3)cc2n6-c2ccccc2)cc1 [Compound 13]
◯ (0.1 wt. % or more soluble)	CC(C)(C)c1ccc(N(c2ccc(C(C)(C)C)cc2)c2ccc3c4c5ccc6c(c5ccc4n(-c4ccccc4)c3c2)c2ccc(N(c3ccc4c5c7ccc8c(c7ccc5n(-c5ccccc5)c4c3)c3ccc(N(c4ccc(C(C)(C)C)cc4)c4ccc(C(C)(C)C)cc4)cc3n8-c3ccccc3)c3cccc4c3oc3ccccc34)cc2n6-c2ccccc2)cc1 [Compound 7]
◯ (0.1 wt. % or more soluble)	CC(C)(C)c1ccc(N(c2ccc3c4c5ccc6c(c5ccc4n(-c4ccccc4)c3c2)c2ccc(N(c3ccccc3)c3ccccc3)cc2n6-c2ccccc2)c2ccc3c4c5ccc6c(c5ccc4n(-c4ccccc4)c3c2)c2ccc(N(c3ccccc3)c3ccccc3)cc2n6-c2ccccc2)cc1 [Compound 11]
◯ (0.1 wt. % or more soluble)	Cc1cccc(N(c2ccc3c4c5ccc6c(c5ccc4n(-c4ccccc4)c3c2)c2ccc(N(c3ccccc3)c3ccc4c5c7ccc8c(c7ccc5n(-c5ccccc5)c4c3)c3ccc(N(c4cccc(C)c4)c4cccc5c4oc4ccccc45)cc3n8-c3ccccc3)cc2n6-c2ccccc2)c2cccc3c2oc2ccccc23)c1 [Compound 4]
◯ (0.1 wt. % or more soluble)	Cc1cccc(N(c2cccc3c2oc2ccccc23)c2cccc3c2c2c4ccc5c(c4ccc2n3-c2ccccc2)c2c(N(c3ccc(C(C)(C)C)cc3)c3cccc4c3c3c6ccc7c(c6ccc3n4-c3ccccc3)c3c(N(c4cccc(C)c4)c4cccc6c4oc4ccccc46)cccc3n7-c3ccccc3)cccc2n5-c2ccccc2)c1 [Compound 21]
◯ (0.1 wt. % or more soluble)	Cc1cccc(N(c2ccc3c4c5ccc6c(c5ccc4n(-c4ccccc4)c3c2)c2ccc(N(c3ccc(C(C)(C)C)cc3)c3ccc4c5c7ccc8c(c7ccc5n(-c5ccccc5)c4c3)c3ccc(N(c4cccc(C)c4)c4cccc5c4oc4ccccc45)cc3n8-c3ccccc3)cc2n6-c2ccccc2)c2cccc3c2oc2ccccc23)c1 [Compound 1]
◯ (0.1 wt. % or more soluble)	Cc1cccc(N(c2ccc3c4c5ccc6c(c5ccc4n(-c4ccccc4)c3c2)c2ccc(N(c3ccc4c5c7ccc8c(c7ccc5n(-c5ccccc5)c4c3)c3ccc(N(c4cccc(C)c4)c4cccc5c4oc4ccccc45)cc3n8-c3ccccc3)c3cccc4c3oc3ccccc34)cc2n6-c2ccccc2)c2cccc3c2oc2ccccc23)c1 [Compound 3]
◯ (0.1 wt. % or more soluble)	CC(C)(C)c1ccc(N(c2ccc(C(C)(C)C)cc2)c2ccc3c4c5ccc6c(c5ccc4n(-c4ccccc4)c3c2)c2ccc(N(c3ccc(-c4cc5ccccc5o4)cc3)c3ccc4c5c7ccc8c(c7ccc5n(-c5ccccc5)c4c3)c3ccc(N(c4ccc(C(C)(C)C)cc4)c4ccc(C(C)(C)C)cc4)cc3n8-c3ccccc3)cc2n6-c2ccccc2)cc1 [Compound 8]
◯ (0.1 wt. % or more soluble)	CC(C)(C)c1ccc(N(c2ccc(C(C)(C)C)cc2)c2ccc3c4c5ccc6c(c5ccc4n(-c4ccccc4)c3c2)c2ccc(N(c3ccc(C(C)(C)C)cc3)c3ccc4c5c7ccc8c(c7ccc5n(-c5ccccc5)c4c3)c3ccc(N(c4ccc(C(C)(C)C)cc4)c4ccc(C(C)(C)C)cc4)cc3n8-c3ccccc3)cc2n6-c2ccccc2)cc1 [Compound 6]
◯ (0.1 wt. % or more soluble)	Cc1cccc(N(c2ccc3c4c5ccc6c(c5ccc4n(-c4ccccc4)c3c2)c2ccc(N(c3cccc(C)c3)c3cccc4c3oc3ccccc34)cc2n6-c2ccccc2)c2ccc3c4c5ccc6c(c5ccc4n(-c4ccccc4)c3c2)c2ccc(N(c3cccc(C)c3)c3cccc4c3oc3ccccc34)cc2n6-c2ccccc2)c1 [Compound 2]
◯ (0.1 wt. % or more soluble)	Cc1cccc(N(c2ccc3c4c5ccc6c(c5ccc4n(-c4ccccc4)c3c2)c2ccc(Oc3ccc4c5c7ccc8c(c7ccc5n(-c5ccccc5)c4c3)c3ccc(N(c4cccc(C)c4)c4cccc5c4oc4ccccc45)cc3n8-c3ccccc3)cc2n6-c2ccccc2)c2cccc3c2oc2ccccc23)c1 [Compound 17]
◯ (0.1 wt. % or more soluble)	c1ccc(N(c2ccccc2)c2ccc3c4c5ccc6c(c5ccc4n(-c4ccccc4)c3c2)c2ccc(N(c3ccc4cc(-c5cc7ccccc7o5)ccc4c3)c3ccc4c5c7ccc8c(c7ccc5n(-c5ccccc5)c4c3)c3ccc(N(c4ccccc4)c4ccccc4)cc3n8-c3ccccc3)cc2n6-c2ccccc2)cc1 [Compound 12]
◯ (0.1 wt. % or more soluble)	Cc1cccc(N(c2ccc3c(c2)c2c4ccc5c(c4ccc2n3-c2ccccc2)c2cc(N(c3ccc(C(C)(C)C)cc3)c3ccc4c(c3)c3c6ccc7c(c6ccc3n4-c3ccccc3)c3cc(N(c4cccc(C)c4)c4cccc6c4oc4ccccc46)ccc3n7-c3ccccc3)ccc2n5-c2ccccc2)c2cccc3c2oc2ccccc23)c1 [Compound 19]
◯ (0.1 wt. % or more soluble)	CC(C)(C)c1ccc(N(c2ccc3c4c5ccc6c(c5ccc4n(-c4ccccc4)c3c2)c2ccc(N(c3ccc(-c4ccc5c(c4)c4ccccc4n5-c4ccccc4)cc3)c3ccc4ccccc4c3)cc2n6-c2ccccc2)c2ccc3c4c5ccc6c(c5ccc4n(-c4ccccc4)c3c2)c2ccc(N(c3ccc(-c4ccc5c(c4)c4ccccc4n5-c4ccccc4)cc3)c3ccc4ccccc4c3)cc2n6-c2ccccc2)cc1 [Compound 9]
